Where a name gives a salt, the structure may show the parent alone.

Assay [1] addresses T1, bovine pancreatic trypsin (Bos taurus, UniProt P00760).
T1 construct: from tissue; host or cells: bovine pancreas
T1 sequence (P00760 24-246): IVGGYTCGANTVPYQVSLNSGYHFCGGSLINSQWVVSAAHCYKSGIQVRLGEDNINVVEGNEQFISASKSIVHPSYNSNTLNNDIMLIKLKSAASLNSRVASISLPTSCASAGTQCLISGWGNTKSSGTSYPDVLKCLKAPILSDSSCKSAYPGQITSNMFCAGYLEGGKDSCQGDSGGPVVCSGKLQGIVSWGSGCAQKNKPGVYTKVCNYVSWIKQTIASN
The assay can be described thus: Chromogenic assay, inhibition of trypsin. The assay is classed as biochemical. The note with it: in vitro, substrate S2222, pH 8.0, 30° C. The procedure: (§1) The inhibition of thrombin, trypsin, plasmin or factor Xa is measured in 96 well plate chromogenic assays. The percentage inhibition and IC50 are calculated from triplicate samples of an 8 concentration dose-response curve. From the substrate Km and IC50, the Ki for each inhibitor is calculated. All assays are carried out in a total incubation of 200 μl of 50 mM HEPES and 150 mM NaCl at pH 8.0, and all compound dilutions are preincubated with enzyme at room temperature for 15 minutes prior to addition of substrate. After 30 minutes incubation at 30° C., the O.D. is measured at […] in a 96 well plate reader. Thrombin activity is measured using bovine thrombin and S2238 (H-D-Phe-Pip-Arg-pNA), bovine pancreatic trypsin is assayed with S2222 (Benz-Isoleu-Glu-Gly-Arg-pNA), bovine plasma plasmin is assayed with Chromozym PL (Tosyl-Giy-Pro-Lys-pNA)and bovine factor Xa is assayed in 50 mM Tris, 150 mM NaCl, pH 7.5 buffer with S2222.
The following Table illustrates the in vitro inhibitory activities against thrombin and trypsin for a range of the compounds of the invention.

The target of the next assay is bovine thrombin (Bos taurus, UniProt P00735). The assay can be described thus: Chromogenic assay, inhibition of thrombin. The assay is classed as biochemical. As for the experimental part:
as §1

As a reminder, the Ki is a measure of affinity in units of concentration, obtained from inhibition or displacement. Lower therefore signals higher affinity. As to `N=C(N)N1CCC(OCCC2CCCCN2C(=O)[C@H](CC(=O)O)NC2CCCCCCC2)CC1` (mixture of isomers) [Example 16, N-(N-Cyclooctyl-(S)-α-aspartyl)-2(R,S)-[2-(N-amidino-4-piperidyloxy)ethyl]piperidine dihydrochloride], affinity in assay [1] was put at a Ki of 720 nM.

Take `N=C(N)N1CCC(OCCC2CCCCN2C(=O)[C@H](CC(=O)O)NC2CCCCC2O)CC1` (mixture of isomers) [Example 17, N-[N-(2-Hydroxycyclohexyl)-(S)-α-aspartyl]-2(R,S)-[2-(N-amidino-4-Piperidyloxy)ethyl]piperidine bis-trifluoroacetate]: the Ki worked out at 35 nM at bovine thrombin and 11000 nM in assay [1].

For `CCN(C1CCCCC1)[C@@H](CC(=O)O)C(=O)N1CCCCC1CCOC1CCN(C(=N)N)CC1` (mixture of isomers) [Example 29, N-(N-Cyclohexyl-N-ethyl-(S)-α-aspartyl)-2(R,S)-[2-(N-amidino-4-piperidyloxy)ethyl]piperidine dihydrochloride], the inhibition constant Ki was found to be 16 nM at bovine thrombin and 5000 nM in assay [1].

Consider `N=C(N)c1ccc(OCCC2CCCCN2C(=O)[C@H](CC(=O)O)NC2CCCCC2)cc1` (mixture of isomers) [Example 31, N-(N-Cyclohexyl-(S)-α-aspartyl)-2(R,S)-[2-(4-amidinophenoxy)ethyl]piperidine dihydrochloride], for which the values for the Ki (at bovine thrombin; in assay [1]) were 45 nM and 1300 nM, respectively.

Consider `N=C(N)N1CCC(OCC[C@@H]2CCCCN2C(=O)[C@H](CC(=O)O)NC2CC3CCC2C3)CC1` (stereo partly drawn) [Example 3, N-[N-(2-Norbornyl)-(S)α-aspartyl]-2(S)-[2-(N-amidino-4-piperidyloxy)ethyl]piperidine dihydrochloride], for which the Ki at bovine thrombin is 4.1 nM; in assay [1], 1200 nM.

In the case of `CN(C1CCCC(C)(C)C1)[C@@H](CC(=O)O)C(=O)N1CCCC[C@H]1CCOC1CCN(C(=N)N)CC1` (stereo partly drawn) [Example 25, N-[N-Methyl-N-(3,3-dimethylcyclohexyl)-(S)-α-aspartyl]-2(S)-[2-(N-amidino-4-piperidyloxy)ethyl]piperidine dihydrochloride], the figures for the Ki (on bovine thrombin; in assay [1]) were 2 nM and 360 nM, respectively.

(Values after patent publication US5917034A, “Antithrombotic n-amidinopiperidine and benzamidine derivatives” (Pfizer Inc., priority 1995, dated 1999).)
